Laboratory results: the supplement of paper PMC10307832

Each cell line was assayed with CC1(COc2ccc3c(c2)ncn3-c2ccc3cccc(N4CCC(N)CC4)c3n2)COC1 [Crenolanib] + COc1cccc2cc(-c3nc([C@H]4CC[C@H](C(=O)O)CC4)n4ncnc(N)c34)[nH]c12 [OSI-027] (partner 0.5 µM) (assay: relative viability (nuclei count vs DMSO), 5 days (fraction); higher = more cells survive). Details: first compound 1 µM.
Procedure, shortened: (§1)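 Lung cancer cell lines were pin-tool dosed in 1536-well plates on the day after seeding, with either a lone drug or a fixed anchor-drug dose plus five library-drug doses (not always all listed) in √10 steps. Nuclei were counted on 4× images after 5 days. Relative viability is the ratio of treated-well to vehicle-well nuclei counts, with each value a median of duplicate plates.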
For NCI-H2405, the relative viability was 0.655. For SW 1573, the relative viability was 0.578. Cell Line NCI-H1395 has a relative viability of 0.6. 201T was tested, and the relative viability was 0.692. Cell Line NCI-H1975 has a relative viability of 0.778. HOP-62 was tested, and the relative viability was 0.722. Cell Line NCI-H2347 has a relative viability of 0.427. For NCI-H1355, the relative viability was 0.35.

These cell lines were tested with CC1(COc2ccc3c(c2)ncn3-c2ccc3cccc(N4CCC(N)CC4)c3n2)COC1 [Crenolanib] + CC(=O)c1c(C)c2cnc(Nc3ccc(N4CCNCC4)cn3)nc2n(C2CCCC2)c1=O [Palbociclib] (partner 0.5 µM) in the same assay as above. Details: first compound 0.01 µM.
Procedure, shortened: as §1
NCI-H647 showed a relative viability of 0.401. Work on LK-2 yielded a relative viability of 0.667. Cell Line NCI-H2126 has a relative viability of 0.343. Work on NCI-H2342 yielded a relative viability of 0.521. For SK-MES-1, the relative viability was 0.335. Work on HARA yielded a relative viability of 0.298. COR-L23 showed a relative viability of 0.245. For COR-L 105, the relative viability was 0.435. Work on LC-2-ad yielded a relative viability of 0.476. LU99A showed a relative viability of 0.411. ChaGo-K-1 was tested, and the relative viability was 0.955. In the case of NCI-H2170, the relative viability is reported as 0.384. In the case of NCI-H3122, the relative viability is reported as 0.177. HCC-78 gave a relative viability of 0.451. SW 900 was tested, and the relative viability was 0.591. LXF-289 was tested, and the relative viability was 0.628. For BEN, the relative viability was 0.464. HCC-15 gave a relative viability of 0.721. HCC-827 showed a relative viability of 0.453. For NCI-H441, the relative viability was 0.261. In the case of LOU-NH91, the relative viability is reported as 0.524. Cell Line NCI-H2023 has a relative viability of 0.358. Cell Line A-427 has a relative viability of 0.542. Work on NCI-H460 yielded a relative viability of 0.165. Work on NCI-H727 yielded a relative viability of 0.72. For NCI-H1755, the relative viability was 0.466. In the case of NCI-H520, the relative viability is reported as 0.252. NCI-H2405 gave a relative viability of 0.584. In the case of SW 1573, the relative viability is reported as 0.369. In the case of NCI-H1395, the relative viability is reported as 0.622. 201T showed a relative viability of 0.363. With NCI-H1975 the relative viability was 0.623. With HOP-62 the relative viability was 0.457. NCI-H2347 was tested, and the relative viability was 0.458. Cell Line NCI-H1355 has a relative viability of 0.405.

Same assay, conditions: first compound 0.03162 µM
NCI-H647 gave a relative viability of 0.341. LK-2 gave a relative viability of 0.532. Work on NCI-H2126 yielded a relative viability of 0.352. NCI-H2342 was tested, and the relative viability was 0.545. Cell Line SK-MES-1 has a relative viability of 0.32. With HARA the relative viability was 0.219. COR-L23 showed a relative viability of 0.319. For COR-L 105, the relative viability was 0.467. Cell Line LC-2-ad has a relative viability of 0.466. Cell Line LU99A has a relative viability of 0.453. ChaGo-K-1 was tested, and the relative viability was 0.941. In the case of NCI-H2170, the relative viability is reported as 0.432. In the case of NCI-H3122, the relative viability is reported as 0.193. HCC-78 was tested, and the relative viability was 0.434. Work on LXF-289 yielded a relative viability of 0.595. In the case of BEN, the relative viability is reported as 0.482. Work on HCC-15 yielded a relative viability of 0.702. HCC-827 gave a relative viability of 0.484. Cell Line NCI-H441 has a relative viability of 0.236. LOU-NH91 gave a relative viability of 0.481. Work on NCI-H2023 yielded a relative viability of 0.373. NCI-H460 was tested, and the relative viability was 0.163. Work on NCI-H727 yielded a relative viability of 0.676. Cell Line NCI-H1755 has a relative viability of 0.443. Work on NCI-H520 yielded a relative viability of 0.214. In the case of SW 1573, the relative viability is reported as 0.458. NCI-H1395 showed a relative viability of 0.628. 201T gave a relative viability of 0.349. With NCI-H1975 the relative viability was 0.575. Cell Line HOP-62 has a relative viability of 0.45. Cell Line NCI-H2347 has a relative viability of 0.453. NCI-H1355 showed a relative viability of 0.457.

Same assay, conditions: first compound 0.1 µM
For NCI-H647, the relative viability was 0.434. In the case of LK-2, the relative viability is reported as 0.88. In the case of NCI-H2126, the relative viability is reported as 0.335. Cell Line NCI-H2342 has a relative viability of 0.574. SK-MES-1 gave a relative viability of 0.31. With HARA the relative viability was 0.272. Cell Line COR-L23 has a relative viability of 0.299. For COR-L 105, the relative viability was 0.436. In the case of LC-2-ad, the relative viability is reported as 0.505. LU99A showed a relative viability of 0.4. Work on ChaGo-K-1 yielded a relative viability of 0.913. Work on NCI-H2170 yielded a relative viability of 0.38. NCI-H3122 gave a relative viability of 0.196. With HCC-78 the relative viability was 0.416. With SW 900 the relative viability was 0.449. For LXF-289, the relative viability was 0.62. Cell Line BEN has a relative viability of 0.48. With HCC-15 the relative viability was 0.755. In the case of HCC-827, the relative viability is reported as 0.503. In the case of NCI-H441, the relative viability is reported as 0.217. Work on LOU-NH91 yielded a relative viability of 0.518. In the case of NCI-H2023, the relative viability is reported as 0.386. A-427 gave a relative viability of 0.554. NCI-H460 showed a relative viability of 0.0988. NCI-H727 was tested, and the relative viability was 0.678. NCI-H1755 gave a relative viability of 0.46. NCI-H520 gave a relative viability of 0.289. In the case of NCI-H2405, the relative viability is reported as 0.39. For SW 1573, the relative viability was 0.422. NCI-H1395 gave a relative viability of 0.677. Cell Line 201T has a relative viability of 0.341. NCI-H1975 showed a relative viability of 0.498. HOP-62 gave a relative viability of 0.461. NCI-H2347 gave a relative viability of 0.395. NCI-H1355 showed a relative viability of 0.4.

Same assay, conditions: first compound 0.3162 µM
For NCI-H647, the relative viability was 0.363. For LK-2, the relative viability was 0.734. NCI-H2126 was tested, and the relative viability was 0.352. Work on NCI-H2342 yielded a relative viability of 0.533. SK-MES-1 was tested, and the relative viability was 0.314. Work on HARA yielded a relative viability of 0.242. In the case of COR-L23, the relative viability is reported as 0.306. Work on COR-L 105 yielded a relative viability of 0.379. With LC-2-ad the relative viability was 0.541. Work on LU99A yielded a relative viability of 0.432. ChaGo-K-1 gave a relative viability of 0.821. In the case of NCI-H2170, the relative viability is reported as 0.422. NCI-H3122 showed a relative viability of 0.196. HCC-78 was tested, and the relative viability was 0.479. SW 900 was tested, and the relative viability was 0.523. Cell Line LXF-289 has a relative viability of 0.648. With BEN the relative viability was 0.524. In the case of HCC-15, the relative viability is reported as 0.526. With HCC-827 the relative viability was 0.482. Cell Line NCI-H441 has a relative viability of 0.262. In the case of LOU-NH91, the relative viability is reported as 0.539. NCI-H2023 was tested, and the relative viability was 0.434. In the case of A-427, the relative viability is reported as 0.569. For NCI-H460, the relative viability was 0.15. NCI-H727 was tested, and the relative viability was 0.646. For NCI-H1755, the relative viability was 0.454. NCI-H520 was tested, and the relative viability was 0.267. With NCI-H2405 the relative viability was 0.541. In the case of SW 1573, the relative viability is reported as 0.368. NCI-H1395 gave a relative viability of 0.635. Work on 201T yielded a relative viability of 0.37. With NCI-H1975 the relative viability was 0.568. In the case of HOP-62, the relative viability is reported as 0.497. Cell Line NCI-H2347 has a relative viability of 0.435. NCI-H1355 showed a relative viability of 0.472.

Same assay, conditions: first compound 1 µM
With NCI-H647 the relative viability was 0.51. For LK-2, the relative viability was 1.06. Work on NCI-H2126 yielded a relative viability of 0.372. With NCI-H2342 the relative viability was 0.598. SK-MES-1 showed a relative viability of 0.34. Work on HARA yielded a relative viability of 0.294. In the case of COR-L23, the relative viability is reported as 0.266. COR-L 105 was tested, and the relative viability was 0.417. Work on LC-2-ad yielded a relative viability of 0.442. LU99A showed a relative viability of 0.441. ChaGo-K-1 was tested, and the relative viability was 0.986. With NCI-H2170 the relative viability was 0.417. NCI-H3122 gave a relative viability of 0.206. HCC-78 was tested, and the relative viability was 0.428. For SW 900, the relative viability was 0.554. LXF-289 showed a relative viability of 0.618. BEN showed a relative viability of 0.497. HCC-15 was tested, and the relative viability was 0.66.
